The values that follow come from PubChem BioAssay (NCI).

Some test systems named below: DLD-1 colon; DMS 114 small cell lung; DMS 273 small cell lung; HOP-18 NSCLC; LXFL 529 NSCLC; MDA-N; P388 leukemia; P388/ADR leukemia; SN12K1 renal; SNB-78 CNS; XF 498 CNS.
Holding throughout (test): NCI tumour cell line growth inhibition, 48 h

Values joined by “and” are separate entries in the source; they are usually repeats but may differ in a detail not shown here. Equal values may be shown once.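 Exposure lasted 48 hours, with cells grown in 96-well plates and compounds tested at five concentrations. GI50 is the concentration that inhibits growth by half. TGI is the concentration that stops growth completely.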

Take `CNc1nc(N(C)C)nc(N(C)C)n1`: the GI50 with DLD-1 colon was > 100 µM and 822 µM; in the experiment with DMS 114 small cell lung it was > 100 µM and 527 µM; with DMS 273 small cell lung, > 100 µM and 1230 µM; in the experiment on HOP-18 NSCLC, > 100 µM and 1130 µM; in the experiment with SNB-78 CNS, > 100 µM and 1780 µM; in the experiment on XF 498 CNS, > 100 µM and 538 µM. For the same molecule, the TGI is > 100 µM and 4160 µM in the experiment on DLD-1 colon; > 100 µM and 5500 µM in the experiment on DMS 114 small cell lung; > 100 µM and 2740 µM with DMS 273 small cell lung; > 100 µM and 3780 µM in the experiment with HOP-18 NSCLC; over 100 µM in the experiment with LXFL 529 NSCLC; 2850 µM in the experiment on MDA-N. In addition, the TGI with P388 leukemia is 1530 µM; in the experiment on P388/ADR leukemia, 1800 µM; in the experiment with SN12K1 renal it was 2620 µM; in the experiment on SNB-78 CNS it was > 100 µM and 5300 µM; in the experiment on XF 498 CNS, > 100 µM and 1720 µM.
